Experimental data: PubChem BioAssay AID1259407 (Chemical Carcinogenesis Research Information System (CCRIS), 2018)
Active and inactive are the calls of the source. How the calls were made is not given here.

System: CCRIS mutagenicity, Ames/micronucleus/aberration tests
Assay: CCRIS mutagenicity studies
[1] = End Point: IN VITRO CHROMOSOMAL ABERRATIONS, Test System: HUMAN PERIPHERAL LYMPHOCYTES, Metabolic Activation: NONE
[2] = Test System: AMES SALMONELLA TYPHIMURIUM, Strain/Indicator: TA98, Metabolic Activation: NONE, Method: PREINCUBATION
[3] = Test System: AMES SALMONELLA TYPHIMURIUM, Strain/Indicator: TA98, Metabolic Activation: NONE, Method: STANDARD PLATE
[4] = Test System: AMES SALMONELLA TYPHIMURIUM, Strain/Indicator: TA100, Metabolic Activation: NONE, Method: PREINCUBATION
[5] = Test System: AMES SALMONELLA TYPHIMURIUM, Strain/Indicator: TA100, Metabolic Activation: NONE, Method: STANDARD PLATE
[6] = Test System: AMES SALMONELLA TYPHIMURIUM, Strain/Indicator: TA98, Metabolic Activation: RAT, LIVER, S-9, AROCLOR 1254, Method: STANDARD PLATE
[7] = Test System: AMES SALMONELLA TYPHIMURIUM, Strain/Indicator: TA100, Metabolic Activation: RAT, LIVER, S-9, AROCLOR 1254, Method: STANDARD PLATE

Which results are given for `O=[N+]([O-])c1ccc(Cl)c(Cl)c1`?
mutagenic call [1]: inactive; negative; mutagenic call (End Point: In vitro chromosomal aberrations, Test System: Chinese hamster lung (CHL/IU) cells, Metabolic Activation: Rat, Liver, S9, Phenobarbital and 5,6-benzoflavone): active; positive (structural changes). precipitation observed in culture medium at 0.16; mutagenic call [2]: inactive; negative; mutagenic call [3]: inactive; negative; mutagenic call (Test System: AMES SALMONELLA TYPHIMURIUM, Strain/Indicator: TA98, Metabolic Activation: RAT LIVER S-9, AROCLOR 1254 (10%), Method: STANDARD PLATE): inactive; negative; mutagenic call (Test System: AMES SALMONELLA TYPHIMURIUM, Strain/Indicator: TA98, Metabolic Activation: RAT, LIVER, S-9, KANECHLOR 500, Method: PREINCUBATION): inactive; negative; mutagenic call [4]: active; positive; mutagenic call [5]: inactive; negative; mutagenic call (Test System: AMES SALMONELLA TYPHIMURIUM, Strain/Indicator: TA100, Metabolic Activation: RAT, LIVER, S-9, KANECHLOR 500, Method: PREINCUBATION): active; positive; mutagenic call (Test System: Ames Salmonella typhimurium, Strain/Indicator: TA98, Metabolic Activation: None, Method: Preincubaton): inactive; negative; mutagenic call (Test System: Ames Salmonella typhimurium, Strain/Indicator: TA98, Metabolic Activation: Rat, Liver, S9, Sodium phenobarbital and 5,6-benzoflavone (10%), Method: Preincubaton): inactive; negative; mutagenic call (Test System: Ames Salmonella typhimurium, Strain/Indicator: TA100, Metabolic Activation: None, Method: Preincubaton): active; positive; mutagenic call (Test System: Ames Salmonella typhimurium, Strain/Indicator: TA100, Metabolic Activation: Rat, Liver, S9, Sodium phenobarbital and 5,6-benzoflavone (10%), Method: Preincubaton): active; positive; mutagenic call (Test System: Ames Salmonella typhimurium, Strain/Indicator: TA1535, Metabolic Activation: None, Method: Preincubaton): inactive; negative; mutagenic call (Test System: Ames Salmonella typhimurium, Strain/Indicator: TA1535, Metabolic Activation: Rat, Liver, S9, Sodium phenobarbital and 5,6-benzoflavone (10%), Method: Preincubaton): inactive; negative; mutagenic call (Test System: Ames Salmonella typhimurium, Strain/Indicator: TA1537, Metabolic Activation: None, Method: Preincubaton): inactive; negative; mutagenic call (Test System: Ames Salmonella typhimurium, Strain/Indicator: TA1537, Metabolic Activation: Rat, Liver, S9, Sodium phenobarbital and 5,6-benzoflavone (10%), Method: Preincubaton): inactive; negative; mutagenic call (Test System: E. coli, Strain/Indicator: WP2uvrA/pKM101, Metabolic Activation: None, Method: Preincubaton): inactive; negative; mutagenic call (Test System: E. coli, Strain/Indicator: WP2uvrA/pKM101, Metabolic Activation: Rat, Liver, S9, Sodium phenobarbital and 5,6-benzoflavone (10%), Method: Preincubaton): inactive; negative

With `C[C@]12CC[C@@H]3c4cc(O)c(O)cc4CC[C@H]3[C@@H]1CC[C@@H]2O` as the compound, how does the mutagenic call (End Point: In vitro micronucleus, Test System: Human lymphocytes, Metabolic Activation: None) read?
The mutagenic call was “active; positive only at 10 ug/ml in cytochalasin block micronuclei; no dose response”.

What about the mutagenic call (Test System: Ames Salmonella typhimurium, Strain/Indicator: TA98, Metabolic Activation: None, Method: Standard plate) of the same compound?
Its mutagenic call is “inactive; negative”.

What about the mutagenic call (Test System: Ames Salmonella typhimurium, Strain/Indicator: TA98, Metabolic Activation: Rat, liver, S-9, Method: Standard plate) of the same compound?
Its mutagenic call is “inactive; negative”.

What about the mutagenic call (Test System: Ames Salmonella typhimurium, Strain/Indicator: TA100, Metabolic Activation: None, Method: Standard plate) of the same compound?
Its mutagenic call is “inactive; negative”.

What about the mutagenic call (Test System: Ames Salmonella typhimurium, Strain/Indicator: TA100, Metabolic Activation: Rat, liver, S-9, Method: Standard plate) of the same compound?
The mutagenic call was “inactive; negative”.

Which mutagenic call [1] does the source give for `CN(C)c1ccc([C@H]2C[C@]3(C)[C@@H](CC[C@]3(O)CCCO)[C@@H]3CCC4=CC(=O)CCC4=C32)cc1` here?
The mutagenic call was “inactive; negative”.

What about the mutagenic call (End Point: IN VITRO CHROMOSOMAL ABERRATIONS, Test System: HUMAN PERIPHERAL LYMPHOCYTES, Metabolic Activation: RAT, LIVER, S-9, AROCLOR 1254) of the same compound?
The mutagenic call was “inactive; negative”.

And the mutagenic call (End Point: IN VIVO MICRONUCLEUS, Test System: BONE MARROW POLYCHROMATIC ERYTHROCYTES, Species: MOUSE, Strain/Sex: NMRI/MALE, FEMALE, Route: INTRAGASTRIC)?
The mutagenic call was “inactive; negative”.

And the mutagenic call [2]?
The mutagenic call was “inactive; negative”.

And the mutagenic call [3]?
The mutagenic call was “inactive; negative”.

And the mutagenic call (Test System: AMES SALMONELLA TYPHIMURIUM, Strain/Indicator: TA98, Metabolic Activation: RAT, LIVER, S-9, AROCLOR 1254, Method: PREINCUBATION)?
Its mutagenic call is “inactive; negative”.

And the mutagenic call [6]?
Its mutagenic call is “inactive; negative”.

And the mutagenic call [4]?
Its mutagenic call is “inactive; negative”.

And the mutagenic call [5]?
The mutagenic call was “inactive; negative”.

What about the mutagenic call (Test System: AMES SALMONELLA TYPHIMURIUM, Strain/Indicator: TA100, Metabolic Activation: RAT, LIVER, S-9, AROCLOR 1254, Method: PREINCUBATION) of the same compound?
Its mutagenic call is “inactive; negative”.

And the mutagenic call [7]?
The mutagenic call was “inactive; negative”.

And the mutagenic call (Test System: AMES SALMONELLA TYPHIMURIUM, Strain/Indicator: TA1535, Metabolic Activation: NONE, Method: PREINCUBATION)?
Its mutagenic call is “inactive; negative”.

What about the mutagenic call (Test System: AMES SALMONELLA TYPHIMURIUM, Strain/Indicator: TA1535, Metabolic Activation: NONE, Method: STANDARD PLATE) of the same compound?
The mutagenic call was “inactive; negative”.

What about the mutagenic call (Test System: AMES SALMONELLA TYPHIMURIUM, Strain/Indicator: TA1535, Metabolic Activation: RAT, LIVER, S-9, AROCLOR 1254, Method: PREINCUBATION) of the same compound?
The mutagenic call was “inactive; negative”.

What about the mutagenic call (Test System: AMES SALMONELLA TYPHIMURIUM, Strain/Indicator: TA1535, Metabolic Activation: RAT, LIVER, S-9, AROCLOR 1254, Method: STANDARD PLATE) of the same compound?
Its mutagenic call is “inactive; negative”.

And the mutagenic call (Test System: AMES SALMONELLA TYPHIMURIUM, Strain/Indicator: TA1537, Metabolic Activation: NONE, Method: PREINCUBATION)?
Its mutagenic call is “inactive; negative”.

What about the mutagenic call (Test System: AMES SALMONELLA TYPHIMURIUM, Strain/Indicator: TA1537, Metabolic Activation: NONE, Method: STANDARD PLATE) of the same compound?
Its mutagenic call is “inactive; negative”.

What about the mutagenic call (Test System: AMES SALMONELLA TYPHIMURIUM, Strain/Indicator: TA1537, Metabolic Activation: RAT, LIVER, S-9, AROCLOR 1254, Method: PREINCUBATION) of the same compound?
Its mutagenic call is “inactive; negative”.

And the mutagenic call (Test System: AMES SALMONELLA TYPHIMURIUM, Strain/Indicator: TA1537, Metabolic Activation: RAT, LIVER, S-9, AROCLOR 1254, Method: STANDARD PLATE)?
The mutagenic call was “inactive; negative”.

And the mutagenic call (Test System: AMES SALMONELLA TYPHIMURIUM, Strain/Indicator: TA1538, Metabolic Activation: NONE, Method: PREINCUBATION)?
The mutagenic call was “inactive; negative”.

What about the mutagenic call (Test System: AMES SALMONELLA TYPHIMURIUM, Strain/Indicator: TA1538, Metabolic Activation: NONE, Method: STANDARD PLATE) of the same compound?
The mutagenic call was “inactive; negative”.

And the mutagenic call (Test System: AMES SALMONELLA TYPHIMURIUM, Strain/Indicator: TA1538, Metabolic Activation: RAT, LIVER, S-9, AROCLOR 1254, Method: PREINCUBATION)?
The mutagenic call was “inactive; negative”.

What about the mutagenic call (Test System: AMES SALMONELLA TYPHIMURIUM, Strain/Indicator: TA1538, Metabolic Activation: RAT, LIVER, S-9, AROCLOR 1254, Method: STANDARD PLATE) of the same compound?
The mutagenic call was “inactive; negative”.

And the mutagenic call (Test System: CHINESE HAMSTER V-79, Strain/Indicator: V-79 (HGPRT)/6-THIOGUANINE, Metabolic Activation: NONE)?
The mutagenic call was “inactive; negative”.

What about the mutagenic call (Test System: CHINESE HAMSTER V-79, Strain/Indicator: V-79 (HGPRT)/6-THIOGUANINE, Metabolic Activation: RAT, LIVER, S-9, AROCLOR 1254) of the same compound?
The mutagenic call was “inactive; negative”.

Which results are given for `O=C1CCC(=O)N1c1cc(Cl)cc(Cl)c1`?
mutagenic call [3]: inactive; negative; mutagenic call [6]: inactive; negative; mutagenic call [5]: inactive; negative; mutagenic call [7]: inactive; negative
